Test results reported in patent US6187802A, “Substituted 4-arylmethylene-2-imino-2,3-dihydrothiazoles and derivatives and their pharmaceutical use” (Knoll Aktiengesellschaft, priority 1997, dated 2001).
Structures can show the parent of a compound that is named as a salt.

Experiments:
[1] = molecular target: T1, 5-hydroxytryptamine (5-HT) reuptake sites (Rattus norvegicus, UniProt P31652); test: displacement of [3H]paroxetine from 5-HT reuptake sites, frontal cortical membranes; format: binding; conditions: 10^-6 M test compound, [3H]paroxetine 30 pM, one test only, read-out: 5-HT uptake (% displacement of specific binding of tritiated ligand)
T1 construct: Frontal cortical tissue from the brains of male Sprague-Dawley rats; from tissue; host or cells: rat brain frontal cortex (crude synaptosomes in A2, washed membranes in A5)
Method: Frontal cortical tissue from the brains of male Charles River rats weighing 150-250 g was homogenised in ice-cold 0.25M sucrose (1:30 w/v) using a Kinematic polytron (speed setting 6 for 30 seconds) and centrifuged at 1000 g for 12 minutes. The supernatant was stored on ice and the pellet was resuspended in 0.25M sucrose (1:20 w/v) and centrifuged at 850 g for 10 minutes. Combined supernatants were diluted to 1:100 w/v with ice-cold 50 mM Tris-HCl, pH 7.5 (at 25° C.) containing 120 mM sodium chloride and 5 mM potassium chloride (Tris buffer) and centrifuged at 40,000 g for 10 minutes. The resulting pellet was resuspended in 50 mM Tris buffer (1:100 w/v) and recentrifuged at 40,000 g for 10 minutes. The final pellet was resuspended in 50 mM Tris buffer (equivalent to 2 mg wet weight of tissue/ml) and used immediately in the binding assay. All centrifugations were carried out at 4° C.
Membranes (1000 μl; equivalent to 2 mg wet weight of tissue/tube) were incubated with 200 μl [^3 H]paroxetine at a single concentration of 30 pM and 200 μl of distilled water (total binding) or 200 μl of test compound (10^-6 M) or 200 μl of citalopram (1 μM; non-specific binding) for 2 h at 22° C.
Membrane bound radioactivity was recovered by filtration under vacuum through Whatman GFIC filters using a Brandel cell harvester. Filters were rapidly washed with 16 ml ice-cold 50 mM Tris buffer and radioactivity determined by liquid scintillation counting (2 ml Packard MV Gold scintillator).
(§1) For each of these tests measuring the ability of compounds of Formula I to displace standard ligands from dopamine (DA), 5-hydroxytryptamine (5-HT) and noradrenaline (NA) reuptake sites in vitro, the percentage displacement of specific binding of tritiated ligand by 10^-6 M test compound was calculated in the following way:
(§2) Firstly, specific binding of tritiated ligand in the absence (A) and presence (B) of test compound was determined:
(§3) In the absence of compound:
(§4) A (dpm)=Total binding (dpm)-Non-specific binding (dpm)
(§5) In the presence of compound (10^-6 M):
(§6) B (dpm)=Binding at 10^-6 M (dpm)-Non-specific binding (dpm)
(§7) The specific binding of tritiated ligand in the presence (B) of compound was then converted to a percentage of specific binding of tritiated ligand in the absence (A) of compound:
(§8) % Specific binding at 10^-6 M=B (dpm)/A(dpm)×100
(§9) The percentage displacement of specific binding of trtiated ligand by the test compound (10^-6 M) was then obtained by subtraction of the percentage specific binding in the presence of compound from the percentage specific binding in the absence of compound, which is taken as the maximum binding and so equals 100%:
(§10) % Displacement at 10^-6 M=100-% Specific binding at 10^-6 M.
(§11) The values given below in Table 2 for examples 6 to 76 are % displacement of specific binding of tritiated ligand by 10^-6 M test compound and represent results from one test only. IA refers to <50% displacement.

[2] = molecular target: T2, noradrenaline (NA) reuptake sites (Rattus norvegicus, UniProt Q63380); test: displacement of [3H]nisoxetine from noradrenaline reuptake sites, frontal cortical membranes; conditions: 10^-6 M test compound, [3H]nisoxetine 0.6 nM, one test only, read-out: NA uptake (% displacement of specific binding of tritiated ligand)
T2 construct: Frontal cortical tissue from the brains of male Sprague-Dawley rats; from tissue; host or cells: rat brain frontal cortex (crude synaptosomes in A3, washed membranes in A6)
Method: Frontal cortical tissue from the brains of male Charles River rats weighing 150-250 g was homogenised in ice-cold 50 mM Tris-HCl, pH 7.4 (at 25° C.) containing 120 mM sodium chloride and 5 mM potassium chloride (Tris buffer; 1:60 w/v) using a Kinematic polytron (speed setting 6 for 30 seconds) and centrifuged at 40,000 g for 10 minutes. The supernatant was discarded and the pellet rehomogenised in Tris buffer, 1:60 w/v, and centrifuged at 40,000 g for 10 minutes. This step was repeated twice more so that, in total, the brain tissue was homogenised and centrifuged four times. The final pellet was resuspended in 50 mM Tris-HCl, pH 7.4 containing 300 mM sodium chloride and 5 mM potassium chloride (equivalent to 25 mg wet weight of tissue/ml) and used immediately in the binding assay. All centrifugations were performed at 4° C.
Membranes (400 μl; equivalent to 10 mg wet weight of tissue/tube) were incubated with 50 μl [^3 H]nisoxetine at a single concentration of 0.6 nM and 50 μl of distilled water (total binding) or 50 μl of test compound (10^-6 M) or 50 μl of mazindol (1 μM; non-specific binding) for 4 h at 4° C.
Membrane bound radioactivity was recovered by filtration under vacuum through Skatron 11734 filters using a Skatron cell harvester. Filters were rapidly washed with ice-cold 50 mM Tris-HCl, pH 7.4 containing 120 mM sodium chloride and 5 mM potassium chloride (wash setting 9,9,0) and radioactivity determined by liquid scintillation counting (1 ml Packard MV Gold scintillator).
as §1, §2, §3, §4, §5, §6, §7, §8, §9, §10, §11

[3] = molecular target: T3, dopamine (DA) reuptake sites (Rattus norvegicus, UniProt P23977); test: displacement of [3H]GBR 12935 from dopamine reuptake sites, striatal membranes; format: binding; conditions: 10^-6 M test compound, [3H]GBR 12935 1 nM, one test only, read-out: DA uptake (% displacement of specific binding of tritiated ligand)
T3 construct: Striatal tissue from the brains of male Charles River rats weighing 150-250 g; from tissue; host or cells: rat brain striatum (crude synaptosomes in A1, washed membranes in A4)
Method: Striatal tissue from the brains of male Charles River rats weighing 150-250 g was homogenised in ice-cold 0.32M sucrose (1:80 w/v) using a motor driven teflon pestle (12 strokes, 800 rpm) and centrifuged at 1000 g for 12 minutes. The supernatant was stored on ice and the pellet was resuspended in 0.32M sucrose (1:80 w/v) and centrifuged at 850 g for 10 minutes. Combined supernatants were diluted to 1:320 w/v with ice-cold 50 mM Tris-HCl, pH 7.4 (at 25° C.) containing 200 mM sodium chloride and 5 mM potassium chloride (Tris buffer) and centrifuged at 40,000 g for 10 minutes. The resulting pellet was resuspended in 10 ml of 50 mM Tris buffer, incubated at 37° C. for 10 min, diluted in 50 mM Tris buffer (1:320 w/v) and recentrifuged at 40,000 g for 10 minutes. The final pellet was resuspended in 50 mM Tris buffer (equivalent to 1.25 mg wet weight of tissue/ml) and used immediately in the binding assay. All centrifugations were carried out at 4° C.
Membranes (800 μl; equivalent to 1 mg wet weight of tissue/tube) were incubated with 100 μl [^3 H]GBR 12935 at a single concentration of 1 nM and 100 μl of distilled water (total binding) or 100 μl of test compound (10^-6 M) or 100 μl of mazindol (1 μM; non-specific binding) for 90 min at 4° C.
Membrane bound radioactivity was recovered by filtration under vacuum through Whatman GF/C filters, pre-soaked for 1 h in 0.5% polyethylenimine,using a Brandel cell harvester. Filters were rapidly washed with 16 ml of ice-cold 50 mM Tris-HCl, pH 7.4 and radioactivity determined by liquid scintillation counting (2 ml Packard MV Gold scintillator).
as §1, §2, §3, §4, §5, §6, §7, §8, §9, §10, §11

T3 sequence (P23977 whole entry): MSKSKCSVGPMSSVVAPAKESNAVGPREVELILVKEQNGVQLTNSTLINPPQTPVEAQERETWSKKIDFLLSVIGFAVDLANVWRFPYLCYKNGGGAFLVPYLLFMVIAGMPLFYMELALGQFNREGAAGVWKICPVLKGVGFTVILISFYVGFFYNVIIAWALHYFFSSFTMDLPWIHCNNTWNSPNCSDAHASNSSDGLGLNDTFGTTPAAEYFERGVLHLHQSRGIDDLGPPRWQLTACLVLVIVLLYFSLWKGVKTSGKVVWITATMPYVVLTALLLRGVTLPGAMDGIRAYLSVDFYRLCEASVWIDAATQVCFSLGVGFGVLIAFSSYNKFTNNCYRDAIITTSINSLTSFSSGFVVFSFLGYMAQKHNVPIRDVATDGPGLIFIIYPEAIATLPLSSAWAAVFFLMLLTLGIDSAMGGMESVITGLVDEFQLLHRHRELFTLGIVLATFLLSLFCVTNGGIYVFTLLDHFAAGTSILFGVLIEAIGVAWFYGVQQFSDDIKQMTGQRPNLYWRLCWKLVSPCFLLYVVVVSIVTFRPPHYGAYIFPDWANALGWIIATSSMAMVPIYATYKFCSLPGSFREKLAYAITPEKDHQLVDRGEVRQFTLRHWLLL
T1 sequence (P31652 whole entry): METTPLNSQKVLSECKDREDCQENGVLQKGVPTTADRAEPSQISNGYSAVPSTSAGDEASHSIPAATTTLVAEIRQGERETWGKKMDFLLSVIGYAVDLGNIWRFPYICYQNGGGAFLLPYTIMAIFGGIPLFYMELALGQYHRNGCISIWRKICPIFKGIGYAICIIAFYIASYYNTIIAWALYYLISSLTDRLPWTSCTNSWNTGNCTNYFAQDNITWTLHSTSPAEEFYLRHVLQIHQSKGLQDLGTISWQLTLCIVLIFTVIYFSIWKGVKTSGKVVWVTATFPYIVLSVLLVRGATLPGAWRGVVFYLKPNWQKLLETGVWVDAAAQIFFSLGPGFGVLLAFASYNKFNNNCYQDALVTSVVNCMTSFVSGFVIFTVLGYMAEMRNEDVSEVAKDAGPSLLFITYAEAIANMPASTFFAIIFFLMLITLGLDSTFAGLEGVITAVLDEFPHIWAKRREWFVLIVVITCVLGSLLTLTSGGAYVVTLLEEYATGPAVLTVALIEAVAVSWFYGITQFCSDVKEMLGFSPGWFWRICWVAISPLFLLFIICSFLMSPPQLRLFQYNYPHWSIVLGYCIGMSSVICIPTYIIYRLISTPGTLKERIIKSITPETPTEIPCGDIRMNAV
T2 sequence (Q63380 1-617): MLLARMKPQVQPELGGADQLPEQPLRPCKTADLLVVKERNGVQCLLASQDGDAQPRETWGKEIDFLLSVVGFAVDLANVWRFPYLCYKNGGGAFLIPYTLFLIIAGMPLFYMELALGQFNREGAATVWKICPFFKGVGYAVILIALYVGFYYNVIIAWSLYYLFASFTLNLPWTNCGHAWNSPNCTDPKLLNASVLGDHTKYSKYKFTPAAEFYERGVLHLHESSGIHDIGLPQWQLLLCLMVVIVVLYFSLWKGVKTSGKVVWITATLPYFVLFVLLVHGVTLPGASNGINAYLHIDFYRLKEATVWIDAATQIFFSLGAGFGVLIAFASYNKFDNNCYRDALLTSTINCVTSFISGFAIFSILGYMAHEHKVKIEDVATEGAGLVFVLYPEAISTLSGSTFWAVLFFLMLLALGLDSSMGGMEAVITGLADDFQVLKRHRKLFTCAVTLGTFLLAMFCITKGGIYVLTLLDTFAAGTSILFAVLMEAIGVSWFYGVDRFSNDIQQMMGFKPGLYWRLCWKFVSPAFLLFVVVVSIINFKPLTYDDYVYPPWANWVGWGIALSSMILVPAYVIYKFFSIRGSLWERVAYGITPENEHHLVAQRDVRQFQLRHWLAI

SMILES	inhibition at 1 µM [1]	inhibition at 1 µM [2]	inhibition at 1 µM [3]
Cc1ccc(N=c2scc(C3(c4ccc(Cl)c(Cl)c4)CCC3)n2-c2ccc(C)cc2C)c(C)c1 [Example 31, 4-[1-(3,4-Dichlorophenyl)cyclobutyl]-3-(2,4-xylyl)-2-(2,4-xylylimino)-2,3-dihydrothiazole hydrobromide]	< 50%	< 50%	63%
CCCN=c1scc(C2(c3ccc(Cl)c(Cl)c3)CCC2)n1CCC [Example 16, 4-[1-(3,4-Dichlorophenyl)cyclobutyl]-3-propyl-2-propylimino-2,3-dihydrothiazole hydrobromide]	102%	56%	116%
Cc1ccc(N=c2scc(C3(c4ccc(Cl)c(Cl)c4)CCC3)n2-c2ccc(C)cc2)cc1 [Example 28, 4-[1-(3,4-Dichlorophenyl)cyclobutyl]-3-(p-tolyl)-2-(ptolylimino)-2,3-dihydrothiazole hydrobromide]	< 50%	< 50%	71%
CCCCN=c1scc(C2(c3ccc(Oc4ccccc4)cc3)CCC2)n1CCCC [Example 59, 3-Butyl-2-butylimino-4-[1-(4-phenoxyphenyl)cyclobutyl]-2,3-dihydrothiazole hydrobromide]	< 50%	< 50%	73%
Cc1ccccc1N=c1scc(C2(c3ccc(Cl)c(Cl)c3)CCC2)n1-c1ccccc1C [Example 29, 4-[1-(3,4-Dichlorophenyl)cyclobutyl]-3-(o-tolyl)-2-(o-tolylimino)-2,3-dihydrothiazole hydrobromide]	< 50%	< 50%	74%
Fc1ccc(CN=c2scc(C3(c4ccc(Cl)c(Cl)c4)CCC3)n2Cc2ccc(F)cc2)cc1 [Example 23, 4-[1-(3,4-Dichlorophenyl)cyclobutyl]-3-(4-fluorobenzyl)-2-(4-fluorobenzylimino)-2,3-dihydrothiazole hydrobromide]	< 50%	< 50%	83%
CCCCN=c1scc(C2(c3ccc(Cl)cc3)CCC2)n1CCCC [Example 56, 3-Butyl-2-butylimino-4-[1-(4-chlorophenyl)cyclobutyl]-2,3-dihydrothiazole hydrobromide]	< 50%	< 50%	93%
c1ccc(CCN=c2scc(C3(c4ccc5ccccc5c4)CCC3)n2CCc2ccccc2)cc1 [Example 46, 4-1-(2-Naphthyl)cyclobutyl]-3-phenethyl-2-phenethylimino-2,3-dihydrothiazole hydrobromide]	51%	< 50%	98%
CCCCN=c1scc(C2(c3ccc(Cl)cc3)CCCC2)n1CCCC [Example 60, 3-Butyl-2-butylimino-4-[1-(4-chlorophenyl)cyclopentyl]-2,3-dihydrothiazole hydrobromide]	< 50%	< 50%	106%
FC(F)(F)c1cccc(N=c2scc(C3(c4ccc(Cl)c(Cl)c4)CCC3)n2-c2cccc(C(F)(F)F)c2)c1 [Example 30, 4-[1-(3,4-Dichlorophenyl)cyclobutyl]-3-(3-trifluoromethylphenyl)-2-(3-trifluoromethylphenylimino)-2,3-dihydrothiazole hydrobromide]	< 50%	< 50%	79%
CCOc1ccc(N=c2scc(C3(c4ccc(Cl)c(Cl)c4)CCC3)n2-c2ccc(OCC)cc2)cc1 [Example 32, 4-[1-(3,4-Dichlorophenyl)cyclobutyl]-3-(4-ethoxyphenyl)-2-(4-ethoxyphenylimino)-2,3-dihydrothiazole hydrobromide]	< 50%	< 50%	69%
Cc1ccc(N=c2scc(C3(c4ccc5ccccc5c4)CCC3)n2-c2ccc(C)cc2C)c(C)c1 [Example 52, 4-[1-(2-Naphthyl)cyclobutyl]-3-(2,4-xylyl)-2-(2,4-xylylimino)-2,3-dihydrothiazole hydrobromide]	< 50%	< 50%	74%
CCCN=c1scc(C2(c3ccc4ccccc4c3)CCC2)n1CCC [Example 38, 4-[-(2-Naphthyl)cyclobutyl]-3-propyl-2-propylimino-2,3-dihydrothiazole hydrobromide]	102%	95%	111%
Clc1ccc(C2(C3=CSC4=NCCN34)CCCC2)cc1Cl [Example 6, 3-[1-(3,4-dichlorophenyl)cyclopentyl]-5,6-dihydroimidazo[2,1-b]thiazole hydrobromide]	86%	101%	112%
COCCC1=C(C2(c3ccc(Cl)c(Cl)c3)CCC2)N2CCN=C2S1 [Example 8, 3-[1-(3,4-dichlorophenyl)cyclobutyl]-2-(2-methoxyethyl)-5,6-dihydroimidazo[2,1-b]-thiazole hydrobromide]	62%	< 50%	< 50%
